Source: patent US20250127937A1, “FAP INHIBITOR” (UNIVERSITÄT HEIDELBERG, priority 2018, published 2025)
Read-outs that look alike come from different tables or passages of the source. Values belong to the compound of their own block, whether it stands above or below them.

Tests used:
human FAP-α = human FAP-α (Homo sapiens (Human), UniProt Q12884); experiment: Competitive binding of radiolabeled compound to HT-1080-FAP cells against unlabeled compound
Protocol: Competition experiments were performed by simultaneous exposure to unlabeled (10^−5 M to 10^−9M) and radiolabeled compound for 60 min. […] For internalization experiments, surface bound activity was removed by incubating the cells with 1 M glycine-HCl buffer for 10 min. The radioactivity was measured using a γ-counter, normalized to 1 mio cells and calculated as percentage of applied dose (% ID).
The medium was replaced by 1 mL fresh medium without fetal calf serum. […] Competition experiments were performed by simultaneous exposure to unlabeled (10^−5 M to 10^−9 M) and radiolabeled compound for 60 min. […] In all experiments, the cells were washed with 1 mL phosphate-buffered saline pH 7.4 for 2 times and subsequently lysed with 1.4 ml lysis buffer (0.3 M NaOH, 0.2% SDS). Radioactivity was determined in a γ-counter (Cobra II, Packard), normalized to 1 mio cells and calculated as percentage of the applied dose (% ID). Each experiment was performed 3 times, and 3 repetitions per independent experiment were acquired.

human CD26 = human CD26 (Homo sapiens (Human), UniProt P27487); experiment: Radioligand binding to CD26 expressing cells (HEK-CD26); conditions: 60 min incubation
Protocol: (§1) In vitro binding studies were performed using the human tumor cell lines BxPC3, Capan-2, MCF-7 (purchased from Sigma Aldrich Chemie GmbH) and SK-LMS-1 (purchased from ATCC) as well as stably transfected FAP-cell lines HT-1080-FAP, HEK-muFAP and the CD26 expressing cell line HEK-CD26 (obtained from Stefan Bauer, NCT Heidelberg). All cells were cultivated in Dulbecco's modified Eagle's medium (DMEM) containing 10% fetal calf serum at 37° C./5% carbon dioxide. For fluorescence internalization experiments, cells were seeded on coverslips and stained with FAPI-02-Atto488 and DAPI for cell nucleus staining. Images were acquired on a laser scanning confocal microscope using a 63× oil immersion objective.
(§2) For radioligand binding studies, cells were seeded in 6-well plates and cultivated for 48 h to a final confluence of approx. 80-90% (1.2-2 mio cells/well). The medium was replaced by 1 mL fresh medium without fetal calf serum. The radiolabeled compound was added to the cell culture and incubated for different time intervals ranging from 10 min to 24 h. Competition experiments were performed by simultaneous exposure to unlabeled (10^−5 M to 10^−9 M) and radiolabeled compound for 60 min. […] Radioactivity was determined in a γ-counter (Cobra II, Packard), normalized to 1 mio cells and calculated as percentage of the applied dose (% ID). […]

HT-1080-FAP cells [1] = experiment: Radioligand binding and internalization in HT-1080-FAP cells; format: cell-based, human
Protocol: (§3) Radioligand binding studies were performed using HT-1080-FAP cells. The radiolabeled compound was added to the cell culture and incubated for different time intervals ranging from 10 min to 24 h. Competition experiments were performed by simultaneous exposure to unlabeled (10^−5 M to 10^−9M) and radiolabeled compound for 60 min. For efflux experiments, radioactive medium was removed after incubation for 60 min and replaced by non-radioactive medium for time intervals ranging from 1 to 24 h. For internalization experiments, surface bound activity was removed by incubating the cells with 1 M glycine-HCl buffer for 10 min. The radioactivity was measured using a γ-counter, normalized to 1 mio cells and calculated as percentage of applied dose (% ID).
(§4) For radioligand binding studies, cells were seeded in 6-well plates and cultivated for 48 h to a final confluence of approx. 80-90% (1.2-2 mio cells/well). The medium was replaced by 1 mL fresh medium without fetal calf serum. The radiolabeled compound was added to the cell culture and incubated for different time intervals ranging from 10 min to 24 h. Competition experiments were performed by simultaneous exposure to unlabeled (10^−5 M to 10^−9 M) and radiolabeled compound for 60 min. For efflux experiments, radioactive medium was removed after incubation for 60 min and replaced by non-radioactive medium for time intervals ranging from 1 to 24 h. In all experiments, the cells were washed with 1 mL phosphate-buffered saline pH 7.4 for 2 times and subsequently lysed with 1.4 ml lysis buffer (0.3 M NaOH, 0.2% SDS). Radioactivity was determined in a γ-counter (Cobra II, Packard), normalized to 1 mio cells and calculated as percentage of the applied dose (% ID). Each experiment was performed 3 times, and 3 repetitions per independent experiment were acquired.
For internalization experiments the cells were incubated with the radiolabeled compound for 60 min at 37° C. and 4° C. Cellular uptake was terminated by removing medium from the cells and washing 2 times with 1 mL PBS. Subsequently, cells were incubated with 1 mL of glycine-HCl (1 Min PBS, pH 2.2) for 10 min at room temperature to remove the surface bound activity. The cells were washed with 2 mL of ice-cold PBS and lysed with 1.4 mL of lysis buffer to determine the internalized fraction. For the cells incubated at 4° C., all washing and elution steps were carried out using ice-cold buffers. The radioactivity was measured using a γ-counter, normalized to 1 mio cells and calculated as percentage of applied dose (% ID).

HT-1080-FAP cells [2] = experiment: Efflux experiments in HT-1080-FAP cells; format: cell-based, human; conditions: after 24 h in compound-free medium
Protocol: as §3, §4

[3] = test system: FAP-negative cancer cell lines; experiment: Radioligand binding to FAP-negative human cancer cell lines; format: cell-based; conditions: I-125 labeled, 60 min
Protocol: as §1, §2

[4] = test system: HT-1080-FAP and HEK-muFAP cells; experiment: Fluorescence laser scanning microscopy of internalization, FAP-α expressing cells; format: cell-based; conditions: fluorescently labeled, 1 to 2 hrs
Protocol: as §1
(§5) For internalization experiments HT-1080-FAP and HEK muFAP cells were seeded on uncoated coverslips in a 24-well plate and cultivated in culture medium containing 10% fetal calf serum to a final confluence of approx. 80-90%. The medium was removed and cells were washed with 0.5 mL PBS pH 7.4 for 2 times. FAPI-02-Atto488 (20 μM in DMEM) was added to the cells and incubated for 2 hrs at 37° C. Cells were washed with 0.5 mL PBS pH 7.4 for 3 times and fixed with paraformaldehyde (2% in PBS) for 15 min. The overgrown coverslips were placed on microscope slides using mounting medium containing DAPI for cell nucleus staining (Fluoroshield, Sigma-Aldrich). […]

HEK-CD26 cells = experiment: Fluorescence laser scanning microscopy of internalization, FAP-α negative cells; format: cell-based; conditions: fluorescently labeled, 1 to 2 hrs
Protocol: as §1, §5

[5] = test system: HT-1080-FAP tumor xenografts; experiment: Small-animal imaging (PET, scintigraphy) in HT-1080-FAP tumor bearing mice; format: in vivo, mouse; conditions: F-18 labeled (nicotinamide or AlF-18 NOTA), up to 140 min after i.v.
Protocol: For in vivo experiments, 8 week old BALB/c nu/nu mice (Charles River) were subcutaneously inoculated into the right trunk with 5×10^6 with HT-1080-FAP, Capan-2 or SK-LMS-1 cells, respectively. When the size of the tumor reached approximately 1 cm^3, the radiolabeled compound was injected via the tail vein (˜10 MBq for small-animal PET imaging; ˜1 MBq for organ distribution). […] Images were reconstructed iteratively using the 3D-OSEM+MAP method and were converted to standardized uptake value (SUV) images. Quantification was done using a ROI technique and expressed as SUV mean. For organ distribution of Lu-177 labeled compound ([…]), the animals (n=3 for each time point) were sacrificed after indicated time points (from 30 min to 24 h). The distributed radioactivity was measured in all dissected organs and in blood using a γ-counter (Cobra Autogamma, Packard). The values are expressed as percentage of injected dose per gram of tissue (% ID/g).

[6] = test system: HT-1080-FAP tumor xenografts; experiment: Organ distribution ex vivo in HT-1080-FAP tumor bearing nude mice; parameters: species or system mouse; conditions: AlF-18-labeled, i.v.
[7] = I-125 labeled, 10 min incubation

Chain of human FAP-α (Q12884 whole entry): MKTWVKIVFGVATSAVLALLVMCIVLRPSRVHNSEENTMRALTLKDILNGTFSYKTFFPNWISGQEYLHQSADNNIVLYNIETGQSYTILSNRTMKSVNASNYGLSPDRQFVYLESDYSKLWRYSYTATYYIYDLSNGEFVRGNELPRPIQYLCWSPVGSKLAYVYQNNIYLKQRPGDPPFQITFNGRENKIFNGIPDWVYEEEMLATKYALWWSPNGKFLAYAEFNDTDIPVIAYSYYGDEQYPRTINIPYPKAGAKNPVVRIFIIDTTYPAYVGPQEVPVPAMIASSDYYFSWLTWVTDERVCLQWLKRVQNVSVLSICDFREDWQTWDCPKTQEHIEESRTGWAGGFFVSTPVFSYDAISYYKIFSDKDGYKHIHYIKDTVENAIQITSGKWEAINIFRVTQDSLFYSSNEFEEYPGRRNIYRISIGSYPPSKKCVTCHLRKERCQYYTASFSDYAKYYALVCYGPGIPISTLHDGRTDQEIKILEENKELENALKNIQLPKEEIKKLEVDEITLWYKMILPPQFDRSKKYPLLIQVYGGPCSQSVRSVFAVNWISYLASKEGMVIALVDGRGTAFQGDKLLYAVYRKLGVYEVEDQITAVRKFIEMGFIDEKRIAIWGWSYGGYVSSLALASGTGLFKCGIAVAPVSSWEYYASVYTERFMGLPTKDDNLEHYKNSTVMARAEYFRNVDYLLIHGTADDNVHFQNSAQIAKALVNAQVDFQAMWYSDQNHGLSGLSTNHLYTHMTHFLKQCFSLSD
Chain of human CD26 (P27487 whole entry): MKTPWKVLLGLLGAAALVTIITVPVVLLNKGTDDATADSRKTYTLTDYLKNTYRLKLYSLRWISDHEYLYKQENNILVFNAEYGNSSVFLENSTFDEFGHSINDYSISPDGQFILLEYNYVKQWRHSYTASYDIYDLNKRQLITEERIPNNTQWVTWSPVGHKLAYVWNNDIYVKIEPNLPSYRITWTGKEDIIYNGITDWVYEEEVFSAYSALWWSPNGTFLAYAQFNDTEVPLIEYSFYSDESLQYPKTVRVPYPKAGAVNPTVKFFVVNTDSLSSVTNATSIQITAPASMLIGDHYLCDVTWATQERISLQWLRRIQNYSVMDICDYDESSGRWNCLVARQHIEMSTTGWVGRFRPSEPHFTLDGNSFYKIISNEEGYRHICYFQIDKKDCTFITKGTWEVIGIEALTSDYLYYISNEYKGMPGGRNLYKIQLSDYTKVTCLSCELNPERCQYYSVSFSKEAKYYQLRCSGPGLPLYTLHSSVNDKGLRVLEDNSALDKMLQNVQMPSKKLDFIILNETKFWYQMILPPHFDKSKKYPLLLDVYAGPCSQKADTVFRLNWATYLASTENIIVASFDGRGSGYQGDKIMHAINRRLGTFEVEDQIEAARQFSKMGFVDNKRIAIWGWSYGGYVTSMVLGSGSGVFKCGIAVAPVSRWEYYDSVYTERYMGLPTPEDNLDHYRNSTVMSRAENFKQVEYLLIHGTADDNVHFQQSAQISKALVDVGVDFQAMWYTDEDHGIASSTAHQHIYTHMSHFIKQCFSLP

IC50 (human FAP-α; radiolabeled FAPI-01 (I-125) / FAPI-02 (Lu-177), HT-1080-FAP cells, 60 min, read-out: IC50 human FAP-α): 39.4 nM
binding to CD26 expressing cells (% ID) (human CD26): 0.05±0.01%
Structure (SMILES): N#C[C@@H]1CCCN1C(=O)CNC(=O)c1ccnc2cccc(I)c12 [FAPI-01]
activity remaining after 24 h of incubation relative to initial radioactivity (HT-1080-FAP cells [1]; 24 h incubation, FAPI-01 compared to binding after 10 min): 5%
proportion of total bound fraction located intracellularly (HT-1080-FAP cells [1]; [7]): 95%
total bound fraction (HT-1080-FAP cells [1]; [7]): 19.70±0.28%
internalized proportion of total (HT-1080-FAP cells [1]; I-125 labeled, 4 h incubation): 94%
total bound fraction (HT-1080-FAP cells [1]; I-125 labeled, 4 h incubation): 17.00±0.40%
radioactivity (HT-1080-FAP cells [1]; I-125 labeled, after 24 h, 4° C. (reduced deiodinase activity)): 26.66±1.59%
intracellular radioactivity (HT-1080-FAP cells [1]; I-125 labeled, after 24 h, 37° C.): 3.25±0.29%
retained radioactivity (efflux) (HT-1080-FAP cells [2]): 1.1 % ID
retention of the originally accumulated radioactivity (efflux) (HT-1080-FAP cells [2]): 1.1%
binding to FAP-negative cancer cell lines [3]: no significant binding

Structure (SMILES): CN(CCCC(=O)N1CCN(CCCOc2ccc3nccc(C(=O)CCCN4CCC[C@H]4C#N)c3c2)CC1)Cc1ccccc1-c1c2ccc(=N)cc-2oc2c(S(=O)(=O)O)c(N)ccc12 [FAPI-02-Atto488]
internalization into FAP-α expressing cells [4]: completely internalized
uptake in FAP-α negative HEK-CD26 cells (HEK-CD26 cells): no uptake is detectable

IC50 (human FAP-α; F-18-FAPI derivatives, table title says EC50, head says IC50, read-out: IC50): 2.9 nM
tumor uptake in organ distribution [6]: high tumor uptake
Structure (SMILES): N#C[C@@H]1CC(F)(F)CN1C(=O)CNC(=O)c1ccnc2ccc(OCCCN3CCN(C(=O)[C@H](CC(C(=O)O)C(=O)O)NC(=O)CN4CCN(CC(=O)O)CCN(CC(=O)O)CC4)CC3)cc12 [FAPI-75]
PET imaging findings [5]: high target specificity and fast clearance
